Tested on: NIH3T3 cells
Experiment: MTS formazan dye reduction cytotoxicity/cell viability assay
Method: Standard cytotoxicity/cell viability assays were performed using the CellTiter-96 Aqueous one solution MTS cell proliferation assay (Promega Inc) and using the standard conditions detailed in the manufacturer's instructions.
In addition, we also wanted to ensure that the observations made using the LUCIA were not due to any effects on luciferase expression or on the luciferase assay itself. For this reason, we looked at the effect of adding wortmannin and LY294002 to NIH3T3 cells containing the already integrated R229-Luc provirus.

SMILES | cellular cytotoxicity (percentage of viable cells remaining after drug treatment) (mouse) | cellular cytotoxicity (percentage of viable cells remaining after drug treatment) (MTS assay, concentrations used in LUCIA, FIG. 4C)
O=c1cc(N2CCOCC2)oc2c(-c3ccccc3)cccc12 [LY294002] | slight cytotoxic effect at high concentrations | 
COC[C@H]1OC(=O)c2coc3c2[C@@]1(C)C1=C(C3=O)[C@@H]2CCC(=O)[C@@]2(C)C[C@H]1OC(C)=O [wortmannin] |  | slight cytotoxic effect at high concentrations
